What was measured:
Experiment in all cases: combination Emax (second highest fraction inhibited in the dose matrix, 72 h); higher = more inhibition; extreme values may be limits of the assay
[1] = test system: EB2 (Burkitt's Lymphoma)
Outline: (§1)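 Bliss excess equals the observed combination effect minus the expected value EA + EB − EA·EB, where EA and EB are the effects of each agent alone. Combination Emax is the second-highest inhibition within the matrix. Inhibition was scaled from CellTiter-Glo 2.0 luminescence, with 0 set by vehicle wells and 1 by blank wells, after 72 hours of two-drug dosing of cells plated in 1536-well plates.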

[2] = test system: DU-4475 (Breast Carcinoma)
Outline: as §1

[3] = test system: JIMT-1 (Breast Carcinoma)
Outline: as §1

[4] = test system: NCI-H441 (Lung Adenocarcinoma)
Outline: as §1

[5] = test system: Jurkat (T-Lymphoblastic Leukemia)
Outline: as §1

[6] = test system: EPLC-272H (Other Solid Carcinomas)
Outline: as §1

[7] = test system: A253 (Head and Neck Carcinoma)
Outline: as §1

[8] = test system: GA-10 (Burkitt's Lymphoma)
Outline: as §1

[9] = test system: UACC-812 (Breast Carcinoma)
Outline: as §1

[10] = test system: A2780 (Ovarian Carcinoma)
Outline: as §1

[11] = test system: MHH-ES-1 (Ewing's Sarcoma)
Outline: as §1

[12] = test system: HCC1428 (Breast Carcinoma)
Outline: as §1

[13] = test system: RH-41 (Rhabdomyosarcoma)
Outline: as §1

[14] = test system: GCT (Other Solid Carcinomas)
Outline: as §1

[15] = test system: IM-9 (Non-Cancerous)
Outline: as §1

[16] = test system: CGTH-W-1 (Thyroid Gland Carcinoma)
Outline: as §1

[17] = test system: COLO-792 (Melanoma)
Outline: as §1

[18] = test system: NCI-H2087 (Lung Adenocarcinoma)
Outline: as §1

[19] = test system: CESS (Acute Myeloid Leukemia)
Outline: as §1

[20] = test system: NCI-H1651 (Lung Adenocarcinoma)
Outline: as §1

SMILES | combination Emax [1] | combination Emax [2] | combination Emax [3] | combination Emax [4] | combination Emax [5] | combination Emax [6] | combination Emax [7] | combination Emax [8] | combination Emax [9] | combination Emax [10] | combination Emax [11] | combination Emax [12] | combination Emax [13] | combination Emax [14] | combination Emax [15] | combination Emax [16] | combination Emax [17] | combination Emax [18] | combination Emax [19] | combination Emax [20]
COc1cccc(OCCCN)c1-c1cc(Nc2cnc(C#N)cn2)n[nH]1 [Prexasertib] + C[C@@H]1COCCN1C2=NC(=NC(=C2)C3(CC3)[S@](=N)(=O)C)C4=C5C=CNC5=NC=C4 [AZD6738] (first compound max 1 µM, 7x7, partner max 10 µM) | 0.92 | 0.995 | 0.857 | 0.544 | 0.992 | 0.942 | 0.846 | 1 | 0.542 | 0.825 | 0.693 | 0.378 | 0.97 | 0.315 | 1 | 0.711 | 0.351 | 0.797 | 0.978 | 0.722
COc1cccc(OCCCN)c1-c1cc(Nc2cnc(C#N)cn2)n[nH]1 [Prexasertib] + CCc1c2c(nc3ccc(O)cc13)-c1cc3c(c(=O)n1C2)COC(=O)[C@]3(O)CC [SN-38] (first compound max 1 µM, 7x7, partner max 0.3 µM) | 0.976 | 1 | 0.87 | 0.712 | 1 | 0.922 | 0.966 | 1 | 0.604 | 0.857 | 1 | 0.797 | 1 | 0.842 | 1 | 0.832 | 0.559 | 0.918 | 0.983 | 0.879
CN(C)CCCOc1ccc(-c2ccc3ncc4c(c3c2)n(C2CCOCC2)c(=O)n4C)cn1 [AZD0156] + C=CCn1c(=O)c2cnc(Nc3ccc(N4CCN(C)CC4)cc3)nc2n1-c1cccc(C(C)(C)O)n1 [AZD1775] (first compound max 1 µM, partner max 1 µM) | 0.841 | 0.924 | 0.488 | 0.329 | 0.879 | 0.771 | 0.327 | 0.988 | 0.156 | 0.79 | 0.671 | 0.125 | 0.948 | 0.413 | 0.986 | 0.188 | 0.538 | 0.332 | 0.929 | 0.62
Cn1cnc2c(F)c(Nc3ccc(Br)cc3Cl)c(C(=O)NOCCO)cc21 [Selumetinib] + CC(C)n1c(=O)n(C)c2cnc3cc(F)c(-c4ccc(OCCCN5CCCCC5)nc4)cc3c21 [AZD1390] (first compound max 10 µM, 7x7, partner max 0.3 µM) | 0.0739 | 1 | 0.131 | 0.221 | 0.124 | 0.651 | 0.18 | 0.165 | 0.129 | 0.574 | 0.126 | 0.169 | 0.131 | 0.287 | 0.796 | 0.044 | 0.498 | 0.449 | 0.243 | 0.125
CC1(C)CCC(CN2CCN(c3ccc(C(=O)NS(=O)(=O)c4ccc(NCC5CCOCC5)c([N+](=O)[O-])c4)c(Oc4cnc5[nH]ccc5c4)c3)CC2)=C(c2ccc(Cl)cc2)C1 [Venetoclax] + Cn1cnc2c(F)c(Nc3ccc(Br)cc3Cl)c(C(=O)NOCCO)cc21 [Selumetinib] (first compound max 1 µM, 7x7, partner max 3 µM) | 0.755 | 1 | 0.14 | 0.255 | 0.277 | 0.506 | 0.185 | 0.207 | 0.0864 | 0.377 | 0.0867 | 0.132 | 0.289 | 0.289 | 0.901 | 0.124 | 0.505 | 0.378 | 0.319 | 0.0964
CCN(CCO)CCCOc1ccc2c(Nc3cc(CC(=O)Nc4cccc(F)c4)[nH]n3)ncnc2c1 [AZD2811] + C=CCn1c(=O)c2cnc(Nc3ccc(N4CCN(C)CC4)cc3)nc2n1-c1cccc(C(C)(C)O)n1 [AZD1775] (first compound max 1 µM, partner max 1 µM) | 0.77 | 0.948 | 0.488 | 0.343 | 0.798 | 0.803 | 0.407 | 0.992 | 0.116 | 0.82 | 0.734 | 0.158 | 0.961 | 0.292 | 0.999 | 0.217 | 0.396 | 0.291 | 0.922 | 0.634

From the supplement of paper PMC11061612
